Read-outs that look alike come from different tables or passages of the source.
Key:
[1] = system: clinical isolate HPIV3 HN; assay: Hemadsorption (HAD) assay of HN-receptor binding; type: cell-based, human parainfluenza virus type 3; conditions: cells expressing clinical strain HN, RBC binding
Protocol: We assessed the effect of PAC-3066 on HPIV3 HN-receptor binding in a hemadsorption (HAD) assay that quantitates the binding of sialic acid receptor-bearing erythrocytes (RBC) to HN/F-coexpressing cells.
(§1) (A) Sensitivity of HN-receptor binding to viral entry inhibitors of cell monolayers expressing clinical isolate HPIV3 HN, incubated with either PAC-3066, zanamivir, or DMSO. Percent inhibition relative to that for DMSO-treated cells is shown. Each point represents the mean from 3 experiments, each of which was performed in triplicate, ± SEM. […] Each bar represents the results from triplicate experiments, each of which was performed in triplicate, ± SEM.
Hemadsorption (HAD) was performed and quantified as previously described ([13]). Briefly, the growth medium was aspirated from HN-transfected 293T cell monolayers in 48-well BioCoat plates (Becton Dickson Labware), the medium was replaced with 150 μl of CO2-independent medium (pH 7.3; Gibco) containing different concentrations of compounds and 1% RBC in serum-free CO2-independent medium, and the plates were placed at 4°C for 30 min. The wells were then washed three times with 150 μl cold CO2-independent medium. The bound RBCs were lysed with 200 μl RBC lysis solution (0.145 M NH4Cl, 17 mM Tris HCl), and the absorbance at 405 nm was read using a Tecan M-1000 Pro microplate reader.

mCherry-HPIV3 [2] = system: mCherry-HPIV3
[3] = system: HPIV3 clinical isolate (CI-1) eGFP
mCherry-HPIV3 [4] = assay: microbe, parasite or virus in culture; conditions: Human respirovirus 3, Vero, read-out: IC50 of pure compound (inhibition of viral spread)
[5] = system: HPIV3 clinical isolate HN neuraminidase; assay: Neuraminidase activity on cell monolayers expressing HN; type: biochemical, human parainfluenza virus type 3; conditions: 37°C, pH 5
Protocol: as §1
Assays for the measurement of neuraminidase activity were performed in transiently transfected 293T cell monolayers, as described previously ([13], [34], [82]). Briefly, 293T cells expressing HN were added to 96-well plates in CO2-independent medium at pH 5.0. After adding reaction mixtures containing 20 mM 2′-(4-methylumbelliferyl)-alpha-D-N-acetylneuraminic acid (Toronto Research Chemicals Inc.) substrate and different concentrations of the compounds, the plates were incubated at 37°C for 1 h. Throughout this period, the fluorescence resulting from hydrolysis of the substrate was read at a 365-nm excitation wavelength and a 450-nm emission wavelength using a Tecan M-1000 Pro microplate reader.

[6] = system: HPIV3 clinical isolate (CI-1) eGFP; assay: microbe, parasite or virus in culture; conditions: Human respirovirus 3, read-out: IC50 for inhibition of viral entry

SMILES | effect on HN-receptor binding [1] | combination effect with zanamivir (mCherry-HPIV3 [2]; PAC-3066 concentrations below 250 μM) | antagonism with zanamivir (mCherry-HPIV3 [2]; all pairwise combinations) | combination effect with zanamivir (mCherry-HPIV3 [2]; higher PAC-3066 concentrations, e.g. 1,000 μM) | combination effect with zanamivir (mCherry-HPIV3 [2]; range of zanamivir/PAC-3066 ratios, strongest at 1:1, 1:3 or greater, PAC-3066 250 μM, Combenefit) | inhibition of viral infection by HPIV3 [3] | IC50 (mCherry-HPIV3 [4]) [µM] | effect on viral neuraminidase activity [5] | IC50 [6] [µM]
CC(=O)Nc1cc(NS(=O)(=O)c2ccc(F)cc2F)ccc1O [PAC-3066] | did not affect receptor binding | only additive effects were observed | No significant antagonism was observed | no synergy | strong synergy | inhibited viral infection by HPIV3 | 308 | no inhibitory effect | ~37
N#CCc1cc(NS(=O)(=O)c2cccs2)ccc1O [CM9, reference compound] |  |  |  |  |  | inhibited viral infection by HPIV3 |  |  | 
CC(=O)N[C@H]1[C@H]([C@H](O)[C@H](O)CO)OC(C(=O)O)=C[C@@H]1N=C(N)N [zanamivir, reference compound] | inhibits HN-receptor binding |  |  |  |  |  |  | inhibits HPIV3 HN’s neuraminidase | 
